# Data from PubChem BioAssay (NCI).
#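 Results reflect a 48-hour exposure of cells in 96-well plates to compound at five concentrations. TGI denotes the concentration required for complete inhibition of growth.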
# Tests used:
# Assay in all cases: DTP human tumour cell line panel, 48 h
# [1] = test system: T-47D breast
# [2] = test system: MDA-MB-435
# [3] = test system: UACC-257 melanoma
# [4] = test system: NCI/ADR-RES ovarian
# [5] = test system: RXF 393 renal
# [6] = test system: M14 melanoma
# [7] = test system: A549 NSCLC
# [8] = test system: SW-620 colon
# [9] = test system: NCI-H23 lung
# [10] = test system: HOP-92 NSCLC
# [11] = test system: SF-268 CNS
# [12] = test system: MCF7 breast
# [13] = test system: MDA-MB-231 breast
# [14] = test system: CCRF-CEM leukemia
# [15] = test system: MALME-3M melanoma
# [16] = test system: OVCAR-5 ovarian
# [17] = test system: SK-MEL-2 melanoma
# [18] = test system: SK-OV-3 ovarian
# [19] = test system: IGROV1 ovarian
# [20] = test system: SF-539 CNS
# [21] = test system: HCT-15 colon
# [22] = test system: SK-MEL-5 melanoma
# [23] = test system: ACHN renal
# [24] = test system: SN12C renal
# [25] = test system: OVCAR-3 ovarian
# [26] = test system: RPMI-8226 leukemia
# [27] = test system: SNB-75 CNS
# [28] = test system: KM12 colon
# [29] = test system: HCT-116 colon
# [30] = test system: K-562 leukemia
# [31] = test system: TK-10 renal
# [32] = test system: HL-60(TB) leukemia
# [33] = test system: SNB-19 CNS
# [34] = test system: 786-0 renal
# [35] = test system: UO-31 renal
# [36] = test system: LOX IMVI melanoma
# [37] = test system: COLO 205 colon
# [38] = test system: MOLT-4 leukemia
# [39] = test system: PC-3 prostate
# [40] = test system: MDA-N
# [41] = test system: A498 renal
# [42] = test system: SF-295 CNS
# [43] = test system: HT29 colon
# [44] = test system: HS 578T breast
# [45] = test system: U251 CNS
# [46] = test system: NCI-H226 lung
# [47] = test system: OVCAR-8 ovarian
# [48] = test system: OVCAR-4 ovarian
# [49] = test system: HCC-2998 colon
# [50] = test system: DU-145 prostate
# [51] = test system: CAKI-1 renal
# [52] = test system: SK-MEL-28 melanoma
# [53] = test system: HOP-62 NSCLC
# [54] = test system: NCI-H460 lung
# [55] = test system: NCI-H522 lung
# [56] = test system: EKVX NSCLC
# [57] = test system: UACC-62 melanoma
# [58] = test system: SR leukemia
structure (smiles),measurement,setting,value
CC(=O)Nc1cc(C(=O)Nc2cc(C(=O)Nc3cc(C(=O)Nc4cc(C(=O)Nc5cc(C(=O)NCCC(=O)NCCCN(C)C)n(C)c5)n(C)c4)n(C)c3)n(C)c2)n(C)c1,TGI,[1],72.2 µM
same,TGI,[2],> 100 µM
same,TGI,[3],> 100 µM
same,TGI,[4],> 100 µM
same,TGI,[5],> 100 µM
same,TGI,[6],> 100 µM
same,TGI,[7],> 100 µM
same,TGI,[8],> 100 µM
same,TGI,[9],> 100 µM
same,TGI,[10],75 µM
same,TGI,[11],> 100 µM
same,TGI,[12],> 100 µM
same,TGI,[13],> 100 µM
same,TGI,[14],73.9 µM
same,TGI,[15],> 100 µM
same,TGI,[16],> 100 µM
same,TGI,[17],> 100 µM
same,TGI,[18],> 100 µM
same,TGI,[19],> 100 µM
same,TGI,[20],> 100 µM
same,TGI,[21],> 100 µM
same,TGI,[22],> 100 µM
same,TGI,[23],> 100 µM
same,TGI,[24],> 100 µM
same,TGI,[25],> 100 µM
same,TGI,[26],> 100 µM
same,TGI,[27],> 100 µM
same,TGI,[28],> 100 µM
same,TGI,[29],> 100 µM
same,TGI,[30],> 100 µM
same,TGI,[31],> 100 µM
same,TGI,[32],> 100 µM
same,TGI,[33],> 100 µM
same,TGI,[34],> 100 µM
same,TGI,[35],> 100 µM
same,TGI,[36],> 100 µM
same,TGI,[37],> 100 µM
same,TGI,[38],> 100 µM
same,TGI,[39],> 100 µM
same,TGI,[40],> 100 µM
same,TGI,[41],> 100 µM
same,TGI,[42],> 100 µM
same,TGI,[43],> 100 µM
same,TGI,[44],> 100 µM
same,TGI,[45],> 100 µM
same,TGI,[46],> 100 µM
same,TGI,[47],> 100 µM
same,TGI,[48],> 100 µM
same,TGI,[49],> 100 µM
same,TGI,[50],> 100 µM
same,TGI,[51],44.6 µM
same,TGI,[52],> 100 µM
same,TGI,[53],> 100 µM
same,TGI,[54],> 100 µM
same,TGI,[55],55.6 µM
same,TGI,[56],> 100 µM
CCCCCC(/C=N/Nc1ccccc1)C(O)(C(F)(F)F)C(F)(F)F (stereo unspecified),TGI,[1],> 100 µM
same,TGI,[2],> 100 µM
same,TGI,[3],> 100 µM
same,TGI,[4],> 100 µM
same,TGI,[5],> 100 µM
same,TGI,[6],> 100 µM
same,TGI,[7],> 100 µM
same,TGI,[8],> 100 µM
same,TGI,[9],> 100 µM
same,TGI,[10],> 100 µM
same,TGI,[11],> 100 µM
same,TGI,[13],> 100 µM
same,TGI,[14],> 100 µM
same,TGI,[15],> 100 µM
same,TGI,[16],> 100 µM
same,TGI,[17],> 100 µM
same,TGI,[18],> 100 µM
same,TGI,[19],> 100 µM
same,TGI,[20],> 100 µM
same,TGI,[21],> 100 µM
same,TGI,[22],> 100 µM
same,TGI,[23],> 100 µM
same,TGI,[57],> 100 µM
same,TGI,[24],> 100 µM
same,TGI,[25],> 100 µM
same,TGI,[26],> 100 µM
same,TGI,[27],> 100 µM
same,TGI,[58],> 100 µM
same,TGI,[29],> 100 µM
same,TGI,[30],> 100 µM
same,TGI,[32],> 100 µM
same,TGI,[33],> 100 µM
same,TGI,[34],> 100 µM
same,TGI,[35],> 100 µM
same,TGI,[36],> 100 µM
same,TGI,[37],> 100 µM
same,TGI,[38],> 100 µM
same,TGI,[39],> 100 µM
same,TGI,[40],> 100 µM
same,TGI,[41],> 100 µM
same,TGI,[42],> 100 µM
same,TGI,[43],> 100 µM
same,TGI,[44],> 100 µM
same,TGI,[45],> 100 µM
same,TGI,[46],> 100 µM
same,TGI,[47],> 100 µM
same,TGI,[48],> 100 µM
same,TGI,[49],> 100 µM
same,TGI,[50],> 100 µM
same,TGI,[51],> 100 µM
same,TGI,[52],> 100 µM
same,TGI,[53],> 100 µM
same,TGI,[54],> 100 µM
same,TGI,[55],> 100 µM
same,TGI,[56],> 100 µM
